US20070259889A1, “Protein Binding Compounds” (priority 2003, published 2007)

Molecular target: bovine serum albumin (BSA) (Bos taurus, UniProt P02769)
Test: Protein binding studies (albumin binding, centrifugal ultrafiltration, HPLC)
Type: in vitro ADME
Details: didanosine and didanosine prodrugs; method of Example 7: 4% BSA in water, 30 minutes at 37° C., 10,000 MWCO centrifugal filter, phosphate buffer pH 7.4 reference
Experimental: The compound (approximately 5 mg) was dissolved in DMSO (approximately 1.8 ml). A small sample of this DMSO solution (approximately 5 mg) was added to a solution of bovine serum albumin (BSA) in water (approximately 1.8 ml, 4% BSA). Another sample of the DMSO solution (approximately 5 mg) was added to a solution of phosphate buffer pH 7.4 (isotonic) (approximately 1.8 ml).
Both samples were shaken in a water bath for 30 minutes at 37° C.
The devices were centrifugated at 4000 rpm for 1 hour at 37° C.
The amount of drug in the filtrates was determined by HPLC(C-18 column, phosphate buffer pH 2.2/acetonitrile, UV detection).

Sequence of bovine serum albumin (BSA) (P02769 25-607): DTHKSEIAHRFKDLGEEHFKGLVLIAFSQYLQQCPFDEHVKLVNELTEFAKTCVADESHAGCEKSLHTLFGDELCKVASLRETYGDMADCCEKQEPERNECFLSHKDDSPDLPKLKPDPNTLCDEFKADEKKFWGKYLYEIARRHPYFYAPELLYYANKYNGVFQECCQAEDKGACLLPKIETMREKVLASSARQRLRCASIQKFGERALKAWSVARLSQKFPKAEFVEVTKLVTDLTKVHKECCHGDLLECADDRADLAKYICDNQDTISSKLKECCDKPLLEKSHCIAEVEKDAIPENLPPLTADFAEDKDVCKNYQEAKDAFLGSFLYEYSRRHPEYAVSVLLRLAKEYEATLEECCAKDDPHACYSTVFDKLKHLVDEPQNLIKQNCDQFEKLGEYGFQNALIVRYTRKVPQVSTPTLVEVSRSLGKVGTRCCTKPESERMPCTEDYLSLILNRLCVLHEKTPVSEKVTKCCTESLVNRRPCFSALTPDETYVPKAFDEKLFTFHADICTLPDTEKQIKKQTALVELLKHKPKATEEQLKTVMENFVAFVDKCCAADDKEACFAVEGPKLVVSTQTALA

Compound | % Albumin binding
O=C(O)CCCCCCCCCCC(=O)OCC1CCC(n2cnc3c(=O)[nH]cnc32)O1 (stereo not shown) [2′,3′-dideoxy-5′-hydrogen dodecanedioate inosine] | 94%
O=C(O)CCCCCCCCCCCCCCC(=O)OCC1CCC(n2cnc3c(=O)[nH]cnc32)O1 (stereo not shown) [2′,3′-dideoxy-5′-hydrogen hexadecanedioate inosine] | 100%
O=C(O)CCCCC(=O)OCC1CCC(n2cnc3c(=O)[nH]cnc32)O1 (stereo not shown) [2′,3′-dideoxy-5′-hydrogen hexanedioate inosine] | 10%
O=C(O)CCCCCCC(=O)OCC1CCC(n2cnc3c(=O)[nH]cnc32)O1 (stereo not shown) [2′,3′-dideoxy-5′-hydrogen octanedioate inosine] | 40%
